For data set [1], the system named is MiaPaCa-2 tumor xenograft. Briefly: pancreatic cancer xenograft model. Format: in vivo, BALB/c Nude Mice. As to conditions: MiaPaCa-2 xenograft, 600 mg/kg IP, hypoxic status absent, methanesulfonate. The protocol: All animal models were established as xenograft model in BALB/c Nude Mice (6-8 weeks old, 17-23 grams, maintained in standard conditions and diet), following approved IACUC (Institutional Animal Care and Use Committees) protocols. Cpd.11 Ms was formulated using 2% dimethyl sulfoxide (DMSO in water for injection, starting from a Cpd.11 Ms main preparation (100-60 mg/ml in 2% DMSO in water for injection).
After tumor cell inoculation, the animals were checked daily for morbidity and mortality. Before commencement of treatment all animals were weighed and the tumor volumes were measured using a caliper. The treatments were started when the mean tumor size reached approx. 250 mm^3. […] At the time of routine monitoring, the animals were checked for any effects of tumor growth and treatments on normal behavior such as mobility, visual estimation of food and water consumption, body weight gain/loss (body weights were measured daily during the 5-day treatment and thrice weekly after treatment), eye/hair matting and any other abnormal effect. Death and observed clinical signs were recorded on the basis of the numbers of animals within each subset. […] The surrogate endpoint for survival was calculated and indicated as TVx4 (initial tumor volume times 4). […] All data were analyzed in SPSS (Statistical Product and Service Solutions) version 18.0 (IBM, Armonk, NY, U.S.). […]

Data set [2] is described as follows: stability to gamma irradiation sterilization. Particulars: powder filled vial sterilized under gamma irradiation.
A further data set concerns SW1990 tumor xenograft. Briefly: pancreatic cancer xenograft model. As to conditions: 600 mg/kg IP, hypoxic status absent, methanesulfonate. It counts as in vivo, BALB/c Nude Mice.
In data set [3] the test system is MDA-MB-468 tumor xenograft. Nature of the data set: breast cancer (TNBC) xenograft model. Particulars: MDA-MB-468 xenograft. It counts as in vivo, BALB/c Nude Mice.

The structures appear in SMILES notation.

With `CCN1CCN(C(=O)c2cc(N(CCBr)CCOS(C)(=O)=O)c(S(C)(=O)=O)cc2[N+](=O)[O-])CC1.CS(=O)(=O)O` [Cpd.11 Ms, 4-(5-((2-bromoethyl) (2-((methylsulfonyl)oxy)ethyl)amino)-4-(methylsulfonyl)-2-nitrobenzoyl)-1-ethylpiperazin-1-ium methanesulfonate], the Anti-tumor effect result is “No impact” in data set [1] (listed as Cpd.11Ms); “not observed” in data set [1]; “No impact” with SW1990 tumor xenograft (listed as Cpd.11Ms); “not observed” in the data set with SW1990 tumor xenograft; “Strong impact,” in data set [3] (200-800 mg/kg IP, hypoxic status confirmed). In addition, the “stability to sterilizing conditions” value in data set [2] is listed as “sufficiently stable”. Besides, in data set [3] (400-800 mg/kg from 1 to 5 consecutive days), the “impact on hypoxia by pimonidazole immunohistochemical staining” value is recorded as “clear impact”.

The values are drawn from US12708620B2, “Prodrugs and medical uses thereof” (priority 2018, dated 2026).
